Source: ChEMBL document CHEMBL6078701, “Design and synthesis of novel benzoic acid derivatives as striatal-enriched protein tyrosine phosphatase (STEP) inhibitors with neuroprotective properties” (Eur J Med Chem, 2025)
pIC50: −log10 of the molar value. Calls of active or inactive are those of the source. No cut-off for these calls is given here.

Columns and labels:
HT-22 [1] = test: Anti-apoptotic activity in glutamate-induced mouse HT-22 cells assessed as decrease in BAX expression at 10 to 20 uM incubated for 12 hrs by immunofluorescence analysis; assay type: functional, cell-based; details: dose 10-20 µM
HT-22 [2] = test: Induction of apoptosis in glutamate-induced mouse HT-22 cells assessed as viable cells at 10 uM incubated for 12 hrs by Annexin V/PI staining based flow cytometry analysis (reference value: 92.6%); assay type: functional; details: read-out: Activity
HT-22 [3] = test: Anti-apoptotic activity in glutamate-induced mouse HT-22 cells assessed as increase in BCL-2 expression at 10 to 20 uM incubated for 12 hrs by Western blot analysis; assay type: functional, cell-based; details: dose 10-20 µM
HT-22 [4] = test: Neuroprotective activity against glutamate-induced cytotoxicity in mouse HT-22 cells at 10 to 20 uM assessed as increase in cell viability measured after 14 hrs by CCK8 assay; assay type: functional, cell-based; details: dose 10-20 µM
HT-22 [5] = test: Induction of apoptosis in glutamate-induced mouse HT-22 cells assessed as necrotic cells at 20 uM incubated for 12 hrs by Annexin V/PI staining based flow cytometry analysis (reference value: 3.63 %); assay type: functional
HT-22 [6] = test: Anti-apoptotic activity in glutamate-induced mouse HT-22 cells assessed as decrease in BAX expression at 10 to 20 uM incubated for 12 hrs by Western blot analysis; assay type: functional, cell-based; details: dose 10-20 µM
Cortical neurone [7] = test: Neuroprotective activity against OGD/R induced C57BL/6J mouse Primary cortical neuron assessed as alleviation in neuronal apoptosis at 10 to 20 uM incubated for 12 hrs by TUNEL staining based analysis; assay type: functional, cell-based; details: dose 10-20 µM
HT-22 [8] = test: Induction of apoptosis in glutamate-induced mouse HT-22 cells assessed as viable cells at 20 uM incubated for 12 hrs by Annexin V/PI staining based flow cytometry analysis (reference value: 92.6%); assay type: functional; details: read-out: Activity
[9] = molecular target: T1, Tyrosine-protein phosphatase non-receptor type 1 (Homo sapiens, UniProt P18031); test: Inhibition of PTP1B (unknown origin)
T1 sequence (P18031 whole entry): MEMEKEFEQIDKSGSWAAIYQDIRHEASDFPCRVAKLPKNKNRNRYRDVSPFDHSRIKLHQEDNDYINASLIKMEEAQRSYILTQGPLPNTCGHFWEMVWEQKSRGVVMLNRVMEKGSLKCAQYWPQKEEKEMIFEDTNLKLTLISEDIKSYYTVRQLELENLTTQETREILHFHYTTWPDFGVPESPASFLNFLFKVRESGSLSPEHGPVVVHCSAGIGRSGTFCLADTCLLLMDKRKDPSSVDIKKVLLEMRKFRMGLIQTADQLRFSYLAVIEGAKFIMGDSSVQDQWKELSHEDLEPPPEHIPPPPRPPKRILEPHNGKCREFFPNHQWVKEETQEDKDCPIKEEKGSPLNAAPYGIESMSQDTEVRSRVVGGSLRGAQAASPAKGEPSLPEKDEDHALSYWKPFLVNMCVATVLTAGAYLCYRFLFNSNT

[10] = molecular target: T2, Tyrosine-protein phosphatase non-receptor type 22 (Homo sapiens, UniProt Q9Y2R2); test: Inhibition of LYP (unknown origin)
T2 sequence (Q9Y2R2 whole entry): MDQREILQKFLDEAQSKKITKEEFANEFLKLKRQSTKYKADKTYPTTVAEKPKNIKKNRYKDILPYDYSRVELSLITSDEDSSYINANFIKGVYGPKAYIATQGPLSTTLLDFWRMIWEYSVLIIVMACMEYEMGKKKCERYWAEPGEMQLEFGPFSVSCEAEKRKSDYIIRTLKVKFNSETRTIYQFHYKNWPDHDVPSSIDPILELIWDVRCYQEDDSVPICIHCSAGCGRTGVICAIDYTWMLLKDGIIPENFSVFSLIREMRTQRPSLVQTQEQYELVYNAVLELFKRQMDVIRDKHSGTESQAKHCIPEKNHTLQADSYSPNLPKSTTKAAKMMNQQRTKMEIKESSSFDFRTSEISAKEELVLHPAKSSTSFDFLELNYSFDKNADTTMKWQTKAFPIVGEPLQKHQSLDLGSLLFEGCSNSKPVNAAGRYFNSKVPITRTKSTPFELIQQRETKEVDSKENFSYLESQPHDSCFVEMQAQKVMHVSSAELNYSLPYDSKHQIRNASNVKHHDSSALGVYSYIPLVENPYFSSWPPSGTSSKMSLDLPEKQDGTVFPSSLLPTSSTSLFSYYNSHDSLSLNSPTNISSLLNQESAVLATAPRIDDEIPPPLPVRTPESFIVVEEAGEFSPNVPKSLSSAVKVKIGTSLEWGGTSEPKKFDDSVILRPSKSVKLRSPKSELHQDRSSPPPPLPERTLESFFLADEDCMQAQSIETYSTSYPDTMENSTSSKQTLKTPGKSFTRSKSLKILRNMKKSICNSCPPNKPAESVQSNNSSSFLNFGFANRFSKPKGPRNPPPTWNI

HT-22 [11] = test: Effect on STEP expression in mouse HT-22 cells by Western blot analysis; assay type: functional, cell-based
HT-22 [12] = test: Induction of apoptosis in glutamate-induced mouse HT-22 cells assessed as late apoptotic cells at 10 uM incubated for 12 hrs by Annexin V/PI staining based flow cytometry analysis (reference value: 2.55 %); assay type: functional
HT-22 [13] = test: Induction of apoptosis in glutamate-induced mouse HT-22 cells assessed as necrotic cells at 10 uM incubated for 12 hrs by Annexin V/PI staining based flow cytometry analysis (reference value: 3.63 %); assay type: functional
HT-22 [14] = test: Cytotoxicity against mouse HT-22 cells assessed as effect on cell viability at 40 uM incubated for 48 hrs by CCK-8 assay; assay type: toxicity, cell-based; details: ht-22, 48 h
Cortical neurone [15] = test: Neuroprotective activity against OGD/R induced C57BL/6J mouse Primary cortical neuron assessed as alleviation in neuronal apoptosis at 10 to 20 uM incubated for 12 hrs by immunofluorescence analysis; assay type: functional, cell-based; details: dose 10-20 µM
Cortical neurone [16] = test: Neuroprotective activity against OGD/R induced C57BL/6J mouse Primary cortical neuron assessed as decrease in BAX expression at 10 to 20 uM incubated for 12 hrs by immunofluorescence analysis; assay type: functional, cell-based; details: dose 10-20 µM
[17] = molecular target: T3, Receptor-type tyrosine-protein phosphatase O (Homo sapiens, UniProt Q16827); test: Inhibition of PTPRO (unknown origin)
T3 sequence (Q16827 whole entry): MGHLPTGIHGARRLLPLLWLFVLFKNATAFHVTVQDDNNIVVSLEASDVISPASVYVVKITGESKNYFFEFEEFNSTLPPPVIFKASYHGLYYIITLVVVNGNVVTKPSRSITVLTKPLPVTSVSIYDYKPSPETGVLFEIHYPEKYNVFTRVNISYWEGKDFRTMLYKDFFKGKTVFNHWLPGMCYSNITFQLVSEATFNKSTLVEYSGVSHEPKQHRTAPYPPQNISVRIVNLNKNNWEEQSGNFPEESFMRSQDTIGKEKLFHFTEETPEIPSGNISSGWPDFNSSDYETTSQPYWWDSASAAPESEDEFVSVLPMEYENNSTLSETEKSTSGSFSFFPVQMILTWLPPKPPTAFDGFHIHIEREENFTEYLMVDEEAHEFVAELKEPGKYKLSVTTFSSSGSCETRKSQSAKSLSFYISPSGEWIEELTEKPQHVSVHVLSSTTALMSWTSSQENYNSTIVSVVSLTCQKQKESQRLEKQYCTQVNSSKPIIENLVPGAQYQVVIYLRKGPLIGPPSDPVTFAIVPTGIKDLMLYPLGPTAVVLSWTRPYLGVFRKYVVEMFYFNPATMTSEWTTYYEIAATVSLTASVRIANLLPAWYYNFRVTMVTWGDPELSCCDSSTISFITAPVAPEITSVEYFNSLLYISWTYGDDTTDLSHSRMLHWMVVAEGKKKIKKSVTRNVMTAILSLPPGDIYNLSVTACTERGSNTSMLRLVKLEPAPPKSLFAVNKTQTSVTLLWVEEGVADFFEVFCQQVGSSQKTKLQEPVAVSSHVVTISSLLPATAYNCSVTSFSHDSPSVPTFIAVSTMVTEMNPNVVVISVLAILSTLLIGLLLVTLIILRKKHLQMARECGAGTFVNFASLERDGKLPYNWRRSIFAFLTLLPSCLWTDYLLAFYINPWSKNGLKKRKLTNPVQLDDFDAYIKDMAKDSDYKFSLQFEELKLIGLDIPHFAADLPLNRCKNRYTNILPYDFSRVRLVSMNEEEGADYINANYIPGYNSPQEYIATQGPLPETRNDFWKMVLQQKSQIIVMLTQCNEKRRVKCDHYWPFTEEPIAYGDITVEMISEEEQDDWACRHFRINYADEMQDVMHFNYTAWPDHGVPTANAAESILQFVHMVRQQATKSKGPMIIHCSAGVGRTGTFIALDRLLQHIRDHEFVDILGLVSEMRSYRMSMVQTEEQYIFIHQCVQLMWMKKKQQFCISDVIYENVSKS

Cortical neurone [18] = test: Neuroprotective activity against OGD/R induced C57BL/6J mouse Primary cortical neuron assessed as increase in BCL-2 expression at 10 to 20 uM incubated for 12 hrs by immunofluorescence analysis; assay type: functional, cell-based; details: dose 10-20 µM
HT-22 [19] = test: Induction of apoptosis in glutamate-induced mouse HT-22 cells assessed as reduction in C-caspase 3 activation at 10 to 20 uM incubated for 12 hrs by immunofluorescence analysis; assay type: functional, cell-based; details: dose 10-20 µM
Cortical neurone [20] = test: Neuroprotective activity against OGD/R induced C57BL/6J mouse Primary cortical neuron assessed as decrease in C-caspase3 expression at 10 to 20 uM incubated for 12 hrs by immunofluorescence analysis; assay type: functional, cell-based; details: dose 10-20 µM
PC-12 = test: Cytotoxicity against PC-12 cells at 40 uM incubated for 48 hrs by CCK-8 assay; assay type: toxicity, cell-based; details: rat, pc-12, 48 h
HT-22 [21] = test: Induction of apoptosis in glutamate-induced mouse HT-22 cells assessed as early apoptotic cells at 10 uM incubated for 12 hrs by Annexin V/PI staining based flow cytometry analysis (reference value: 1.23 %); assay type: functional
HT-22 [22] = test: Induction of apoptosis in glutamate-induced mouse HT-22 cells assessed as early apoptotic cells at 20 uM incubated for 12 hrs by Annexin V/PI staining based flow cytometry analysis (reference value: 1.23 %); assay type: functional
HT-22 [23] = test: Anti-apoptotic activity in glutamate-induced mouse HT-22 cells assessed as increase in BCL-2 expression at 10 to 20 uM incubated for 12 hrs by immunofluorescence analysis; assay type: functional, cell-based; details: dose 10-20 µM
[24] = molecular target: T4, Tyrosine-protein phosphatase non-receptor type 2 (Homo sapiens, UniProt P17706); test: Inhibition of TCPTP (unknown origin)
T4 sequence (P17706 whole entry): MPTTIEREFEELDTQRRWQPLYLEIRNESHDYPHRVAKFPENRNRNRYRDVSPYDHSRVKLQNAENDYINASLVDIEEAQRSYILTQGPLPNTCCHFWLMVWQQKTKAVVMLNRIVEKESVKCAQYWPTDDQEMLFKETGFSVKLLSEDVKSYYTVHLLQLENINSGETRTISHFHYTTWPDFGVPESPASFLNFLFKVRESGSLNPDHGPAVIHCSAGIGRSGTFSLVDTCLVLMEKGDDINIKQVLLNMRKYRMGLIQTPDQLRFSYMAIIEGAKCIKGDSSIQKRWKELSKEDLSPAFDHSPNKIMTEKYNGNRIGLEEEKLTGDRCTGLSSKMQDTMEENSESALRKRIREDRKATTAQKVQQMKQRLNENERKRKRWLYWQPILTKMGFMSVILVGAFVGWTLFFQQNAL

HT-22 [25] = test: Induction of apoptosis in glutamate-induced mouse HT-22 cells assessed as late apoptotic cells at 20 uM incubated for 12 hrs by Annexin V/PI staining based flow cytometry analysis (reference value: 2.55 %); assay type: functional
HT-22 [26] = test: Induction of apoptosis in glutamate-induced mouse HT-22 cells assessed as reduction in C-caspase 3 activation at 10 to 20 uM incubated for 12 hrs by Western blot analysis; assay type: functional, cell-based; details: dose 10-20 µM
HT-22 [27] = test: […] glutamate-induced ROS accumulation in mouse HT-22 cells assessed as reduction in fluorescent intensity at 10 to 20 uM incubated for 14 hrs by DCFH-DA staining based inverted fluorescence microscopic analysis; assay type: functional, cell-based; details: dose 10-20 µM
HT-22 [28] = test: Neuroprotective activity against glutamate-induced cytotoxicity in mouse HT-22 cells at 10 to 20 uM assessed as cell death measured after 14 hrs by CCK8 assay; assay type: functional, cell-based; details: dose 10-20 µM

O=C(O)c1ccc(-c2ccc(/C=C3\C(=O)c4cccc([N+](=O)[O-])c4C3=O)o2)c(Cl)c1
Activity (HT-22 [1]): Active | viability at 10 µM (HT-22 [2]): 91.9% | Activity (HT-22 [3]): Active | Activity (HT-22 [4]): Active | Activity (HT-22 [5]): 1.26% | Activity (HT-22 [6]): Active | Activity (Cortical neurone [7]): Active | viability at 20 µM (HT-22 [8]): 93.2% | pIC50 [9]: 5.05 | pIC50 [10]: 4.95 | Activity (HT-22 [11]): Active | Activity (HT-22 [12]): 4.02% | Activity (HT-22 [13]): 0.92% | Activity (HT-22 [14]): Non-toxic | Activity (Cortical neurone [15]): Active | Activity (Cortical neurone [16]): Active | pIC50 [17]: 4.84 | Activity (Cortical neurone [18]): Active | Activity (HT-22 [19]): Active | Activity (Cortical neurone [20]): Active | Activity (PC-12): Non-toxic | Activity (HT-22 [21]): 3.15% | Activity (HT-22 [22]): 2.02% | Activity (HT-22 [23]): Active | pIC50 [24]: 4.36 | Activity (HT-22 [25]): 3.57% | Activity (HT-22 [26]): Active | Activity (HT-22 [27]): Active | Activity (HT-22 [28]): Active
